Measurements: patent US11517603B2, “Bone remodeling accelerator” (HOKURIKU UNIVERSITY, priority 2017, dated 2022)

What was measured:
[1] = tested on: osteoclast differentiation of mouse bone marrow cells; experiment: Differentiation of osteoclast: TRAP-positive osteoclasts in mouse bone marrow cell culture; assay type: cell-based; details: FIG. 2
Procedure: Mouse bone marrow cells were seeded in each well of a microplate containing 0.5 mL α-MEM (manufactured by MP Biomedicals INC.) at 3.5×10^6 cells/well, and cultured at 37° C., carbon dioxide concentration=5(v/v)%. […] On days 1 and 4 of culture, a differentiation induction reagent (calcitriol) was added to a final concentration of 10 nM. At 6 days from the culture, the cells were stained with tartaric acid resistance acidic phosphatase (TRAP), observed with a microscope (inverted culture microscope “CK40”, manufactured by Olympus Corporation, magnification=40×), and the cells stained with TRAP, i.e., differentiated osteoclasts, were detected.

[2] = tested on: osteoblast differentiation of mouse bone marrow cells; experiment: Differentiation of osteoblast: ALP-positive osteoblast nodules in mouse bone marrow cell culture; assay type: cell-based; details: final concentration of 5 μM and 10 μM; p<0.05 or p<0.01; FIG. 1
Procedure: Mouse bone marrow cells were seeded in each well of a microplate containing 0.5 mL Eagle minimum essential medium a modified type (α-MEM) (manufactured by MP Biomedicals INC.) at 2.5×10^6 cells/well, and cultured at 37° C., carbon dioxide concentration=5(v/v)%. […] On days 1 and 4 of culture, a differentiation induction reagent (0.2 mM ascorbic acid, 2.5 mM β-glycerophosphoric acid, 10 nM dexamethasone) was added to the following final concentrations. At 6 days from the culture, the cells were stained with alkaline phosphatase (ALP), observed with a microscope (inverted culture microscope “CK40”, manufactured by Olympus Corporation, magnification=40×), and the osteoblast nodule stained with ALP, i.e., cell nodule formed by differentiated osteoblast, was detected.

O=C1CC(c2ccc(O)c(O)c2)Oc2cc(OC3OC(CO)C(O)C(O)C3O)ccc21 [F2, 3′,4′,7-trihydroxyflavanone 7-O-β-D-glucopyranoside]
final concentration at which a concentration-dependent differentiation accelerating action on osteoclast was exhibited ([1]; TRAP-positive osteoclast number per well, 6 days of culture): ≥ 2.5 µM
TRAP-positive osteoclast number versus control ([1]; final concentration of 5 μM and 10 μM): significant difference of p<0.05
number of ALP-positive osteoblast nodules versus control [2]: significant difference from the control
